The record followed here is ChEMBL document CHEMBL4715809, “Design, synthesis, and biological activity of 4-(imidazo[1,2-b]pyridazin-3-yl)-1H-pyrazol-1-yl-phenylbenzamide derivatives as BCR-ABL kinase inhibitors” (Bioorg Med Chem Lett, 2016).

One series deals with U-937. The experiment in a line: Antiproliferative activity against human U937 cells assessed as reduction in cell viability after 24 hrs by CCK8 assay. Format: functional, cell-based. The following applies: U-937, 24 h. A general note: Tetrazolium dyes change colour on reduction, which living cells bring about.
In another series the target is Bcr/Abl fusion protein (Homo sapiens, UniProt P00519). The experiment in a line: Inhibition of BCR (unknown origin)/recombinant human N-terminal His-tagged ABL1 (27 to end residues) expressed in baculovirus infected Sf9 cells using ABLtide as substrate preincubated for 30 mins followed by substrate addition and measured after 1 hr in presence of ATP by kinase-Glo luminescence assay. A general note: Kinase-Glo measures the ATP left after a reaction by luminescence.

Series [1] can be described thus: Cytotoxicity against human 293T cells assessed as reduction in cell viability after 24 hrs by CCK8 assay. To be noted: 293T (HEK-293T) cells. Format: cell-based.
The subject of a further series is K562. The experiment in a line: Antiproliferative activity against human K562 cells assessed as reduction in cell viability after 24 hrs by CCK8 assay. Format: functional, cell-based. The following applies: K562, 24 h.
Series [2] deals with Bcr/Abl fusion protein (Homo sapiens) (UniProt P00519+P11274). Briefly: Potency index, ratio of staurosporine IC50 to test compound IC50 for inhibition of BCR (unknown origin)/recombinant human N-terminal His-tagged ABL1 (27 to end residues) expressed in baculovirus infected Sf9 cells using ABLtide as substrate preincubated for 30 mins followed by substrate addition and measured after 1 hr in presence of ATP by kinase-Glo luminescence assay. To be noted: time 90.0 min.
Sequence of Bcr/Abl fusion protein (Homo sapiens) (P00519 whole entry, looked up, the tested form may be a part): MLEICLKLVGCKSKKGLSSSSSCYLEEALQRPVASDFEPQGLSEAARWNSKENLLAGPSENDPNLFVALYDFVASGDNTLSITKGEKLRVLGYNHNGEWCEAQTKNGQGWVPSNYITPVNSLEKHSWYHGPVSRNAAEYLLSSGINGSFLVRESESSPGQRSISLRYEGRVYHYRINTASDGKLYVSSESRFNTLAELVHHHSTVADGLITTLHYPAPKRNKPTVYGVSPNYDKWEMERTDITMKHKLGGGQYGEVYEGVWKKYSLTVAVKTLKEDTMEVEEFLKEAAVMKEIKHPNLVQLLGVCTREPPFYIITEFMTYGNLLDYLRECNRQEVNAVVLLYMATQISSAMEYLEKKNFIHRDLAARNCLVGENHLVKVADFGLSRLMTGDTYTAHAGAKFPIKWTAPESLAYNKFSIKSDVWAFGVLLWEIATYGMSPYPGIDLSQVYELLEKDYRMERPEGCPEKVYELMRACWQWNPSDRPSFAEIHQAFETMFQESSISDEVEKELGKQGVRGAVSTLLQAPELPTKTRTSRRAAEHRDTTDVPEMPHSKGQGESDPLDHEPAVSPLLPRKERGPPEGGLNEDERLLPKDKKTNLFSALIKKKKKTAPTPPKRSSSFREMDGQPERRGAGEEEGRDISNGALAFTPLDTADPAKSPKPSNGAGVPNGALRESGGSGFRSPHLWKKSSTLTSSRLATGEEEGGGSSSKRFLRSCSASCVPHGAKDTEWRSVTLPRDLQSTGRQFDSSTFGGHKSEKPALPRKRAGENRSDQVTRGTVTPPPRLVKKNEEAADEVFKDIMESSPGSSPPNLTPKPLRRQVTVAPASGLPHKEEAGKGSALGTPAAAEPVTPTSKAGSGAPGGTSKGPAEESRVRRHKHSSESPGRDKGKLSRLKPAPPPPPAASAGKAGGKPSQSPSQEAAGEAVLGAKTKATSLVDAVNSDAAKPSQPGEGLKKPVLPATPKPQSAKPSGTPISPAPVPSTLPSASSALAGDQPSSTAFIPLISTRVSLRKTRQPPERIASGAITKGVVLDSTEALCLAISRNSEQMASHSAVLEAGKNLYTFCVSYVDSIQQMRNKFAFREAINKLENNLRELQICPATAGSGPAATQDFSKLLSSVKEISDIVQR
Sequence of Bcr/Abl fusion protein (Homo sapiens) (P11274 whole entry, looked up, the tested form may be a part): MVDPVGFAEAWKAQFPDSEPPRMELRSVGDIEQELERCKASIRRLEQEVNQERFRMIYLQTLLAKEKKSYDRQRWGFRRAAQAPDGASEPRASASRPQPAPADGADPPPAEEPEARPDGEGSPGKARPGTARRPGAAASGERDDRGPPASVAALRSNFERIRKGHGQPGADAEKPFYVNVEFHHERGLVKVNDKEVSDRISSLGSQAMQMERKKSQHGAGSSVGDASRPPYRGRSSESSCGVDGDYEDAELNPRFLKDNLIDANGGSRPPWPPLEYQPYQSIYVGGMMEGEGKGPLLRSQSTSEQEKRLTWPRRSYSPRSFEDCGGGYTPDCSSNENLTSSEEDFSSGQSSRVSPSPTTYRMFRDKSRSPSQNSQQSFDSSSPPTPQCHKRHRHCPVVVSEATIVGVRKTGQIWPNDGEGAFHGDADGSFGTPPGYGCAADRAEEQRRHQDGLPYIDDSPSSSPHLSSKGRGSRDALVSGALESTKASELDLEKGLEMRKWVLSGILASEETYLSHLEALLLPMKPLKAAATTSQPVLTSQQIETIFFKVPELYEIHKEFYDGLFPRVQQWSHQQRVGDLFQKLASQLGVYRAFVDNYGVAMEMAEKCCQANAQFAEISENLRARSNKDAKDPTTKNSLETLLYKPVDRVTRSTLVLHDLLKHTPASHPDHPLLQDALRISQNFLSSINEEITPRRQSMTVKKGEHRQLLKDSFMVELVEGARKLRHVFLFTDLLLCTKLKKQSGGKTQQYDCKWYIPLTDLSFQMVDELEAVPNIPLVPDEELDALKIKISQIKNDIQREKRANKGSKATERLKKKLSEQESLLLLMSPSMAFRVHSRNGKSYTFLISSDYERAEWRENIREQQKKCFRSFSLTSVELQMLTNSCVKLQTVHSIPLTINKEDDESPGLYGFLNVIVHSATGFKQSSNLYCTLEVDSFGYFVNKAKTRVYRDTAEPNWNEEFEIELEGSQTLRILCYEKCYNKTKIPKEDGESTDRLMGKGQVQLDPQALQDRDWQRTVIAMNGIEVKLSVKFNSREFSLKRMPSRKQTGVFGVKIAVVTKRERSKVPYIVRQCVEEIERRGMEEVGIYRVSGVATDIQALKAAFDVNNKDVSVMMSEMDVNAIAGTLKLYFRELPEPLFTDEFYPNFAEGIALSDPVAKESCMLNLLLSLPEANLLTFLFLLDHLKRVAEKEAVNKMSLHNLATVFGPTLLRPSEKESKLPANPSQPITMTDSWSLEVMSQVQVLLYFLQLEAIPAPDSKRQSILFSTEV

Sequence of Bcr/Abl fusion protein (P00519 whole entry, the tested form may be a part): as the sequence (P00519 whole entry, looked up, the tested form may be a part) above
Sequence of Bcr/Abl fusion protein (P11274 whole entry, further chain, the tested form may be a part): as the sequence (P11274 whole entry, looked up, the tested form may be a part) above

Consider `Cc1ccc(NC(=O)c2ccc(CN3CCCN(C)CC3)cc2)cc1-n1cc(-c2cnc3ccnn3c2)cn1`, for which the IC50 amounted to 6.83 µM in the series with U-937, 0.621 µM on Bcr/Abl fusion protein and 5.88 µM in the series with K562. In series [1], the CC50 at 24 h turned out to be 20.5 µM.
For `COc1ccc(C(=O)Nc2ccc(C)c(-n3cc(-c4cnc5ccnn5c4)cn3)c2)cc1` the same measures were 16.3 µM, 0.767 µM, 19.7 µM and above 80 µM.
For `Cc1ccc(NC(=O)c2cccc(Cl)c2)cc1-n1cc(-c2cnc3cccnn23)cn1`, in that order: above 20 µM, 0.0222 µM, 5.08 µM and above 80 µM.
For `Cc1ccc(NC(=O)c2cccc(C(F)(F)F)c2)cc1-n1cc(-c2cnc3cccnn23)cn1`, the IC50 was 13.7 µM in the series on U-937, 0.0085 µM at Bcr/Abl fusion protein and below 0.002 µM in the series on K562. For the same compound, the half-maximal cytotoxic concentration (CC50) at 24 h in series [1] stood at 40.3 µM. The Ratio IC50 in series [2] stood at 14.3.
For the compound `Cc1ccc(NC(=O)c2ccc(CN3CCN(C)CC3)cc2)cc1-n1cc(-c2cnc3cccnn23)cn1`, the IC50 in the series on U-937 is 10.8 µM; on Bcr/Abl fusion protein, 0.0261 µM; with K562, below 0.002 µM. The CC50 at 24 h in series [1] came to 23.8 µM.
For `Cc1ccc(NC(=O)c2ccc(C(F)(F)F)cc2)cc1-n1cc(-c2cnc3ccnn3c2)cn1` the same measures were 13.1 µM, 0.804 µM, 6.93 µM and 43.2 µM.
On to `Cc1ccc(NC(=O)c2ccc(CN3CCN(C)CC3)cc2)cc1Nc1nccc(-c2cccnc2)n1` [IMATINIB], for which the IC50 with U-937 came to 12.4 µM; with K562, 7.38 µM. Further, the CC50 at 24 h in series [1] amounted to 27.5 µM.
Turning to `Cc1ccc(NC(=O)c2ccc(CN3CCOCC3)cc2)cc1-n1cc(-c2cnc3ccnn3c2)cn1`, the IC50 on Bcr/Abl fusion protein was determined as 2.44 µM.
For the compound `Cc1ccc(NC(=O)c2ccc(CN3CCOCC3)cc2)cc1-n1cc(-c2cnc3cccnn23)cn1`, the values for the IC50 with U-937, at Bcr/Abl fusion protein and in the series on K562 were 12.4 µM, 0.109 µM and 8.25 µM, respectively. In addition, in series [1], the CC50 at 24 h came to 9.04 µM.
For the compound `CCc1ccc(C(=O)Nc2ccc(C)c(-n3cc(-c4cnc5cccnn45)cn3)c2)cc1`, the IC50 with U-937 was above 20 µM; on Bcr/Abl fusion protein it was 0.0194 µM; in the series with K562, 7.54 µM. Also, the CC50 at 24 h in series [1] is above 80 µM.
Turning to `Cc1ccc(NC(=O)c2ccc(F)cc2)cc1-n1cc(-c2cnc3cccnn23)cn1`, the IC50 is above 20 µM in the series on U-937, 0.0809 µM at Bcr/Abl fusion protein and 12.4 µM with K562. Further, in series [1], the CC50 at 24 h was above 80 µM.
For `Cc1ccc(NC(=O)c2ccc(C(F)(F)F)cc2)cc1-n1cc(-c2cnc3cccnn23)cn1`, in that order: above 20 µM, 0.0741 µM, 10.5 µM and above 80 µM.

The term IC50 denotes the concentration that inhibits the measured activity by half. As a reminder, the CC50 is the concentration giving 50% cytotoxicity.
